Source: patent US20200197526A1, “REFILLABLE DRUG DELIVERY DEVICES AND METHODS OF USE THEREOF” (President and Fellows of Harvard College, priority 2014, published 2020)

Tests used:
[1] = test system: MDA-MB-231 xenograft tumors; assay: Xenograft tumor study with drug refilling; format: in vivo, J:Nu mice; conditions: 120 μg doxorubicin per animal IV (FIG. 5C)
Protocol: All animal experiments were performed according to established animal protocols. Tumors were created by injecting 10^6 MDA-MB-231 cells (American Type Culture Collection, VA) combined with Matrigel (BD Biosciences, CA) to a total volume of 200 μL (100 μL PBS and 100 μL Matrigel) into the hind limbs of 8 week old J:Nu (Foxn1^nu/Foxn1^nu) mice (Jackson Labs, ME). 35 days following tumor inoculation tumors were injected with alginate gels. 20 mg/mL alginate conjugated to DNA (thioT-SH or unconjugated) was mixed with doxorubicin (1.6 mg drug per mL of gel), then crosslinked with 4% wt/v CaSO4 (1.22 M) and then 50 μL of gel were injected into tumors with a 23-gauge needle. 2, 3, 4, and 5 weeks after initial tumoral gel injection, mice were injected retro-orbitally with 100 μL 0.5% DNA-conjugated alginate carrying doxorubicin (5% oxidized alginate, thioA-SH, Dye-750, 160 μg Dox-hydrazide=120 μg Dox). Throughout the study, tumor area was measured twice per week with digital calipers in two dimensions and the product of the two dimensional values was used to approximate tumor area. […]
The breast cancer MDA-MB-231 model was chosen because it is a slow-growing tumor, widely used to test chemotherapeutic strategies. […] The ability of targeted therapy to reduce tumor size was assessed by monitoring the change in tumor size in the three days following each IV administration. […]

[2] = test system: DNA-conjugated calcium-alginate gels; assay: In vitro binding of fluorescent oligonucleotides to DNA-conjugated calcium alginate gels (FIG. 2); conditions: alginate-(T)20 calcium gel; phosphate buffer with 1 mM calcium chloride

Row | Molecule | change in tumor size in the three days following each IV administration [1] | binding of fluorescently-labeled oligonucleotides to gel surface [2]
1 | COc1cccc2c1C(=O)c1c(O)c3c(c(O)c1C2=O)C[C@@](O)(C(=O)CO)C[C@@H]3O[C@H]1C[C@H](N)[C@H](O)[C@H](C)O1 [doxorubicin] | continued to grow | –
2 | AAAAAAAAAAAAAAAAAAAA-FAM [(A)20] | – | bound to the gel surface in a sequence-specific manner
3 | TTTTTTTTTTTTTTTTTTTT-FAM [(T)20] | – | little binding
